Patent US20140004075A1, “PHEROMONE COMPOSITION” (The New Zealand Institute for Plant and Food Research …, priority 2010, published 2014)

Test system: Epiphyas postvittana
Assay: Large Vineyard Trial 2 (disruption of catch to four component lures)
Assay type: in vivo
Conditions: added at 4:1 ratio E11-14:Ac to Z11-14:Ac (Blends 4, 5)
Experimental: All compounds used as authentic standards in the chromatographic analysis or in the field trapping experiments were >97% pure by GC analysis and stored at −80° C. until used. Samples of E11-14:Ac, E9E11-14:Ac, E11-14:OH and E11-16:Ac were purchased from Plant Research International, Wageningen, The Netherlands. All blends of synthetic compounds were applied to the large “well” of red rubber septa (West Pharmaceutical Services, Kearney, N.E., USA) in 200 μl of n-hexane GR (Merck Ltd, New Zealand). The solvent was allowed to evaporate in a fume hood and the septa were stored in heat-sealed foil bags at −20° C. until ready for use. For traps used in assessing disruption, lures contained the four component lure at 1 mg loading with the blends shown in Table 1. […]
Traps were maintained weekly as a short central row transect in each case, with 3 traps containing the four component lure. […] For both trials, the number of moths in the traps was recorded each week. […]
For both Large Vineyard Trials 1 and 2, counts for each date were analysed. In addition, the total pre-treatment and post-treatment counts were analysed. […] Random effects assessed were blocks (replicates), plots within blocks, and spatial position (rows and column as in the Trial plans). In addition to the treatments, for the post-treatment counts, a co-variate for the trap counts in the last pre-treatment week was assessed as a fixed effect. […]

Compound: CC/C=C\CCCCCCCCCCOC(C)=O [Z11-14:Ac, (Z)-11-tetradecenyl acetate]
- effect of the inhibitor on disruption: antagonistic to disruption
